# pEC50, pIC50: −log10 of the molar value. Where two headings read alike, the source gives them in different places.
# Key:
# [1] = test system: cumulus-oocyte complexes; assay: Cumulus expansion assay in vitro; assay type: cell-based, mice; conditions: competing with PGE2
# Procedure: Folliculogenesis is induced in immature female mice (strain: CD1 (ICR) from Charles River) at an age of 14-18 days by a single dose (intraperitoneally) of 10 I.U. of PMSG (Pregnant Mare Serum Gonadotropin; Sigma G-4877, Batch 68H0909). 47-50 hours after the injection, the ovaries are removed and the cumulus-oocyte complexes are removed. The cumulus complex is not yet expanded at this stage.
# The cumulus-oocyte complexes are then incubated with prostaglandin E2 (PGE2) (1 μM), vehicle control (ethanol) or test substances for 20-24 hours. Medium: alpha-MEM medium with 0.1 mM IBMX, pyruvates (0.23 mM), glutamines (2 mM), pen/strep (100 IU/ml pen. and 100 μg/ml strep.) and HSA (8 mg/ml). Cumulus expansion is then established through the division into four stages (according to Vanderhyden et al. Dev Biol. 1990 August; 140(2):307-317).
# [2] = target: T1, human prostaglandin E2 (subtype EP2) receptor (Homo sapiens, UniProt P43116); assay: cAMP antagonism assay (HTRF cAMP, PGE2-stimulated cells); assay type: cell-based
# T1 construct: host or cells: cells on a cell culture plate
# T1 sequence (P43116 whole entry): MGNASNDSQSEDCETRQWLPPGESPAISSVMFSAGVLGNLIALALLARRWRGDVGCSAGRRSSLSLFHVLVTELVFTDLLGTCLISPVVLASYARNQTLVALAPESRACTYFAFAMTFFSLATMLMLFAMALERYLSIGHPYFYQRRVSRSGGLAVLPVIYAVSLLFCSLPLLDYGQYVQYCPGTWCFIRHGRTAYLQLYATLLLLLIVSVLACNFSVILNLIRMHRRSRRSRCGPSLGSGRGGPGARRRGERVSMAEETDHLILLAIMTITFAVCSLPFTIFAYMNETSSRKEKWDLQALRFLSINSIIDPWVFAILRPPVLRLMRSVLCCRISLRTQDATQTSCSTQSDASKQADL
# Procedure: (§1) The binding of PGE2 to the EP2 subtype of the human PGE2 receptor induces activation of membrane-associated adenylate cyclases and leads to the formation of cAMP. In the presence of the phosphodiesterase inhibitor IBMX, cAMP which has accumulated due to this stimulation and been released by cell lysis is employed in a competitive detection method. In this assay, the cAMP in the lysate competes with cAMP-XL665 for binding of an Eu cryptate-labeled anti-cAMP antibody.
# (§2) The two signals are measured in a suitable measuring instrument with a time lag, i.e. after the background fluorescence has declined.
# (§3) The substance solutions (0.75 μl) containing 30% DMSO are introduced into an assay plate and dissolved in 16 μl of a KRSB+IBMX stimulation solution (1× Krebs-Ringer Bicarbonate Buffer; Sigma-Aldrich # K-4002; including 750 μM 3-isobutyl-1-methylxanthine Sigma-Aldrich # I-7018), and then 15 μl, thereof are transferred into a media-free cell culture plate which has been washed with KRSB shortly beforehand.
# After preincubation at room temperature (RT) for 30 minutes, 5 μl of a 4×PGE2 solution (11 nM) are added, and incubation is carried out in the presence of the agonist at RT for a further 60 min (volume: ˜20 μl) before the reaction is then stopped by adding 5 μl of lysis buffer and incubated at RT for a further 20 min (volume: ˜25 μl). The cell lysate is then transferred into a measuring plate and measured in accordance with the manufacturer's information (cyclic AMP kit Cisbio International #62AMPPEC).
# [3] = target: T1, human prostaglandin E2 (subtype EP2) receptor; assay: cAMP agonism assay (HTRF cAMP); assay type: cell-based
# Procedure: as §1, §2
# as §3, with “μl” for “μl,”
# After incubation at room temperature (RT; volume: ˜15 μl) for 60 minutes, the reaction is then stopped by adding 5 μl of lysis buffer and incubated at RT for a further 20 min (volume: ˜20 μl). The cell lysate is then transferred into a measuring plate and measured in accordance with the manufacturer's information (cyclic AMP kit Cisbio International #62AMPPEC).
# [4] = cAMP assay in presence of PGE2, read-out: Antagonism [IC50
# [5] = cAMP assay, no PGE2 added, read-out: Agonism [ED50
Structure (SMILES),suppression of cumulus expansion ([1]; at a concentration of 100-200 μM),"pIC50 [2, 4]","pEC50 [3, 5]",pIC50 ([2]; read-out: IC50 in the antagonism test),pEC50 ([3]; read-out: EC50 in the cellular agonism test),suppression of cumulus expansion ([1]; at one tenth of the concentration (of 100-200 μM)) [%]
"CC(C)Oc1ccc2c(=O)c3cc(C(=O)O)ccc3oc2c1 [AH 6809, reference compound]",about 20%,–,–,–,–,–
"O=C(NC1CCN(c2nncc3ccc(Br)cc23)CC1)c1cccc(Cl)c1Cl [Example 1, N-[1-(7-Bromo-phthalazin-1-yl)-piperidin-4-yl]-2,3-dichloro-benzamide]",–,6.52,< 4.72,–,–,–
"O=C(NC1CCN(c2nncc3cc(Br)ccc23)CC1)c1cccc(Cl)c1Cl [Example 2, N-[1-(6-Bromo-phthalazin-1-yl)-piperidin-4-yl]-2,3-dichloro-benzamide]",–,–,< 4.72,6.70,< 4.72,35
"Cc1nnc(N2CCC(NC(=O)c3cccc(Cl)c3Cl)CC2)c2cc(Br)ccc12 [Example 3, N-[1-(7-Bromo-4-methyl-phthalazin-1-yl)-piperidin-4-yl]-2,3-dichloro-benzamide]",–,6.15,< 4.72,–,–,–
"Cc1nnc(N2CCC(NC(=O)c3cccc(Cl)c3Cl)CC2)c2ccc(Br)cc12 [Example 4, N-[1-(6-Bromo-4-methyl-phthalazin-1-yl)-piperidin-4-yl]-2,3-dichloro-benzamide]",–,6.30,< 4.72,–,–,–

# From patent US20080146576A1, “N-(1-Phthalazin-1-ylpiperidin-4-yl)amides as EP2 receptor modulators” (priority 2006, published 2008)
